Data on 23 compounds can be found in patent publication US20210317092A1 (BAYER PHARMA AKTIENGESELLSCHAFT, priority 2016, published 2021).

Like-named read-outs stand apart in the source and are kept apart here.

Assay [1] has as its target T1, human Bradykinin B1 receptor (Homo sapiens, UniProt P46663).
T1 construct: host or cells: CHO-K1
T1 sequence (P46663 1-353): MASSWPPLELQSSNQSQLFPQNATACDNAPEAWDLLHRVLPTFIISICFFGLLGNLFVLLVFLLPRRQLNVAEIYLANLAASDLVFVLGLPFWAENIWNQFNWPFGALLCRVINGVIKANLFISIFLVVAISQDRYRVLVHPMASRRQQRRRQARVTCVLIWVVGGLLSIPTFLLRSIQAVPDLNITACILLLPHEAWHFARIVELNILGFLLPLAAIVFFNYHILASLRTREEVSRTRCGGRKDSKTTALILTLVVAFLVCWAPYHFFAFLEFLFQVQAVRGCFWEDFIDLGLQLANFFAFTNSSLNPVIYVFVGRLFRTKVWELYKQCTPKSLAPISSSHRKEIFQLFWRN
The assay is described as follows: Calcium flux Assay (FLIPR) with recombinant CHO-K1 cells expressing human Bradykinin B1 receptor, in presence (hB1 IC50) or absence (hB1 free IC50) of 0.1% BSA. In kind it is cell-based. (In general: A change in cytosolic calcium serves as a functional read-out for many receptors and channels.)

For assay [2], the target named is T2, native human Bradykinin B1 receptor (Homo sapiens, UniProt P46663).
T2 construct: which express native human Bradykinin B1 receptor after induction with human IL-10; Coriell Institute; host or cells: IMR-90 human foetal lung fibroblasts, cytokine-induced
T2 sequence (P46663 1-353): T1 sequence (P46663 1-353)
The assay is described as follows: Calcium flux Assay (FLIPR) with human fibroblasts expressing Bradykinin B1 receptor (hB1 IMR-90). In kind it is cell-based. The conditions noted are these: IMR-90 human fibroblasts expressing native Bradykinin B1 receptor. The protocol: Calcium flux Assay (FLIPR) with human fibroblasts expressing Bradykinin B1 receptor (hB1 IMR-90)
The Calcium flux Assay was carried out utilising IMR-90 human foetal lung fibroblasts (American Type Culture Collection, Rockville, Md.; and Coriell Institute, Camden, N.J.), which express native human Bradykinin B1 receptor after induction with human […].
The fibroblasts were cultured in complete growth media comprised of Dulbecco's modified Eagle's medium (DMEM; Sigma) containing 10% foetal bovine serum, 4 mM L-glutamine, and 1% nonessential amino acids. The cells were maintained in a humidified atmosphere with 5% CO2 at 37° C. and were sub-cultured at a ratio of 1:3, every other day.
For the assay, IMR-90 fibroblasts were harvested using TrypLE Express (GIBCO/Invitrogen) and seeded into 384-well plates (Corning Cellbinding Surface, Cat. 3683) at a density of 15000 cells/well. The following day, cells were treated with 0.35 ng/mL human […] in 10% FBS/MEM for 3h to up-regulate Bradykinin B1 receptor. Induced cells were loaded with fluorescent calcium indicator by incubation with 2.5 μM Fluo-4/AM (Invitrogen) at 37° C., 5% CO2 for 2 h in the presence of 2.5 mM probenecid in 1% FBS/MEM. Extracellular dye was removed by washing with assay buffer (2.5 mM probenecid and 0.1% BSA in 20 mM HEPES/HBSS without bicarbonate or phenol red, pH 7.5). Compound examples were assayed at 8 concentrations in triplicate. After addition of compound examples to the cell plate and incubation for 30 min at 28° C., the addition of Bradykinin B1 agonist Lys-(Des-Arg)-Bradykinin (Bachem, Brackley) at a final concentration of EC90 was carried out on the FLIPR instrument while continuously monitoring Ca^2+-dependent fluorescence at 538 nm. A peptide antagonist Lys-(Des-Arg-Leu)-Bradykinin (Bachem, Brackley) at 20 µM was used to determine the full inhibition as control. IC50 values were determined by the same way described for the FLIPR assay with recombinant cells.

The mark [3] stands for this setting: in absence of 0.1% BSA, read-out: hB1 free IC50.
Setting [4] is: in presence of 0.1% BSA, read-out: hB1 IC50.

A word on the IC50: it is the concentration that gives 50% inhibition. `COc1ccc(-c2ccc(NC(=O)C3(c4ccc(C)c(F)c4)CC3)cc2-c2nnn[nH]2)cc1OC` [Example 12, N-[3′,4′-dimethoxy-2-(1H-tetrazol-5-yl)biphenyl-4-yl]-1-(3-fluoro-4-methylpheny) cyclopropane-carboxamide]: the IC50 was found to be 56.4 nM in assay [1] (setting [3]), 18.1 nM in assay [1] (setting [4]) and 39.3 nM in assay [2].
Turning to `COc1ccc(-c2ccc(NC(=O)C3(c4ccc(Cl)c(F)c4)CC3)cc2-c2nnn[nH]2)cc1OC` [Example 16, 1-(4-chloro-3-fluorophenyl)-N-[3′,4′-dimethoxy-2-(1H-tetrazol-5-yl)biphenyl-4-yl]cyclopropane carboxamide], the values for the IC50 in assay [1] (setting [4]) and in assay [2] were 31.7 nM and 528 nM, respectively.
For the compound `COc1ccc(-c2ccc(NC(=O)C3(c4cc(Cl)ccc4F)CC3)cc2-c2nnn[nH]2)cc1OC` [Example 17, 1-(5-chloro-2-fluorophenyl)-N-[3′,4′-dimethoxy-2-(1H-tetrazol-5-yl)biphenyl-4-yl]cyclopropane carboxamide], the IC50 was 68.5 nM in assay [1] (setting [4]) and 263 nM in assay [2].
On to `COc1ccc(-c2ccc(NC(=O)C3(c4ccc(Cl)cc4F)CC3)cc2-c2nnn[nH]2)cc1OC` [Example 18, 1-(4-chloro-2-fluorophenyl)-N-[3′,4′-dimethoxy-2-(1H-tetrazol-5-yl)biphenyl-4-yl]cyclopropane carboxamide], for which the IC50 was 40.2 nM in assay [1] (setting [4]) and 27.4 nM in assay [2].
As to `COc1ccc(-c2ccc(NC(=O)C3(c4ccc(Cl)cn4)CC3)cc2-c2nnn[nH]2)cc1OC` [Example 23, 1-(5-chloropyridin-2-yl)-N-[3′,4′-dimethoxy-2-(1H-tetrazol-5-yl)biphenyl-4-yl]cyclopropane carboxamide], the results for the IC50 in assay [1] (setting [3]), in assay [1] (setting [4]) and in assay [2] were 145 nM, 176 nM and 35.2 nM, respectively.
With `COc1ccc(-c2ccc(NC(=O)C3(c4ccccc4Cl)CC3)cc2-c2nnn[nH]2)cc1OC` [Example 36, 1-(2-chlorophenyl)-N-[3′,4′-dimethoxy-2-(1H-tetrazol-5-yl)biphenyl-4-yl]cyclopropane carboxamide], the IC50 came to 128 nM in assay [1] (setting [4]) and 104 nM in assay [2].
As to `COc1ccc(-c2ccc(NC(=O)C3(c4ccc(C(F)(F)F)cc4)CC3)cc2-c2nnn[nH]2)cc1OC` [Example 44, N-[3′,4′-dimethoxy-2-(1H-tetrazol-5-yl)biphenyl-4-yl]-1-[4-(trifluoromethyl)phenyl] cyclopropane-carboxamide], the half-maximal inhibitory concentration (IC50) in assay [1] (setting [3]) was found to be 5.7 nM; in assay [1] (setting [4]), 23 nM; in assay [2], 5.47 nM.
As for `COc1ccc(-c2ccc(NC(=O)C3(c4ccc(F)c(C)c4)CC3)cc2-c2nnn[nH]2)cc1OC` [Example 48, N-[3′,4′-dimethoxy-2-(1H-tetrazol-5-yl)biphenyl-4-yl]-1-(4-fluoro-3-methylphenyl) cyclopropane-carboxamide], the IC50 in assay [1] (setting [4]) came out at 50.5 nM; in assay [2], 29.3 nM.
Turning to `CC(C)c1cnn(-c2ccc(NC(=O)C3(c4ccc(F)c(F)c4)CC3)cc2-c2nnn[nH]2)c1` [Example 397, 1-(3,4-difluorophenyl)-N-[4-(4-isopropyl-1H-pyrazol-1-yl)-3-(1H-tetrazol-5-yl)phenyl]cyclopro-panecarboxa-mide], the IC50 in assay [1] (setting [3]) came to 38.5 nM.
Turning to `Cc1ccc(C2(C(=O)Nc3ccc(-n4cc(C(C)C)cn4)c(-c4nnn[nH]4)c3)CC2)c(F)c1` [Example 398, 1-(2-fluoro-4-methylphenyl)-N-[4-(4-isopropyl-1H-pyrazol-1-yl)-3-(1H-tetrazol-5-yl)phenyl]cyclopro-panecarboxa-mide], the half-maximal inhibitory concentration (IC50) in assay [1] (setting [3]) came out at 20.6 nM.
As to `CC(C)(C)c1cn(-c2ccc(NC(=O)C3(c4cccc(Cl)c4)CC3)cc2-c2nnn[nH]2)cn1` [Example 400, N-[4-(4-tert-butyl-1H-imidazol-1-yl)-3-(1H-tetrazol-5-yl)phenyl]-1-(3-chlorophenyl)cy-clopropanecarbox-amide], in assay [1] (setting [3]), the IC50 was determined as 25.4 nM.
On to `CC(C)(C)c1cn(-c2ccc(NC(=O)C3(c4ccc(F)c(F)c4)CC3)cc2-c2nnn[nH]2)cn1` [Example 401, N-[4-(4-tert-butyl-1H-imidazol-1-yl)-3-(1H-tetrazol-5-yl)phenyl]-1-(3,4-difluorophenyl)cy-clopropanecar-boxamide], for which the IC50 in assay [1] (setting [3]) was found to be 34.5 nM.
For `Cc1ccc(C2(C(=O)Nc3ccc(-n4cnc(C(C)(C)C)c4)c(-c4nnn[nH]4)c3)CC2)c(F)c1` [Example 402, N-[4-(4-tert-butyl-1H-imidazol-1-yl)-3-(1H-tetrazol-5-yl)phenyl]-1-(2-fluoro-4-methylphenyl)cy-clopropanecar-boxamide], in assay [1] (setting [3]), the IC50 is 25.3 nM.
Turning to `CC(C)(C)c1cn(-c2ccc(NC(=O)C3(c4ccc(C(F)(F)F)cc4F)CC3)cc2-c2nnn[nH]2)cn1` [Example 403, N-[4-(4-tert-butyl-1H-imidazol-1-yl)-3-(1H-tetrazol-5-yl)phenyl]-1-[2-fluoro-4-(trifluoromethyl)phenyl]cyclopro-panecarboxamide], the IC50 in assay [1] (setting [3]) was determined as 20.6 nM.
Consider `CCC1CCN(c2ccc(NC(=O)C3(c4cccc(Cl)c4)CC3)cc2-c2nnn[nH]2)C1=O` (stereo not shown) [Example 405, 1-(3-chlorophenyl)-N-[4-(3-ethyl-2-oxopyrrolidin-1-yl)-3-(1H-tetrazol-5-yl)phenyl]cyclopro-panecarboxa-mide], for which, in assay [1] (setting [3]), the IC50 turned out to be 1390 nM.
For `CCC1CCN(c2ccc(NC(=O)C3(c4ccc(F)c(F)c4)CC3)cc2-c2nnn[nH]2)C1=O` (stereo not shown) [Example 406, 1-(3,4-difluorophenyl)-N-[4-(3-ethyl-2-oxopyrrolidin-1-yl)-3-(1H-tetrazol-5-yl)phenyl]cyclopro-panecarboxa-mide], the IC50 in assay [1] (setting [3]) stood at 2160 nM.
In the case of `CCC1CCN(c2ccc(NC(=O)C3(c4ccc(C)cc4F)CC3)cc2-c2nnn[nH]2)C1=O` (stereo not shown) [Example 407, N-[4-(3-ethyl-2-oxopyrrolidin-1-yl)-3-(1H-tetrazol-5-yl)phenyl]-1-(2-fluoro-4-methylphenyl)cy-clopropanecar-boxamide], the IC50 in assay [1] (setting [3]) is 474 nM.
As to `CCC1CCN(c2ccc(NC(=O)C3(c4ccc(C(F)(F)F)cc4F)CC3)cc2-c2nnn[nH]2)C1=O` (stereo not shown) [Example 408, N-[4-(3-ethyl-2-oxopyrrolidin-1-yl)-3-(1H-tetrazol-5-yl)phenyl]-1-[2-fluoro-4-(trifluoromethyl)phenyl]cyclopro-panecarboxamide], the IC50 in assay [1] (setting [3]) was determined as 131 nM.
As to `CCC1CCN(c2ccc(NC(=O)C3(c4ccc(OC(F)(F)F)cc4F)CC3)cc2-c2nnn[nH]2)C1=O` (stereo not shown) [Example 409, N-[4-(3-ethyl-2-oxopyrrolidin-1-yl)-3-(1H-tetrazol-5-yl)phenyl]-1-[2-fluoro-4-(trifluoromethoxy)phenyl]cyclo-propanecarboxa-mide], in assay [1] (setting [3]), the concentration for half-maximal inhibition (IC50) was 54.7 nM.
For `CC(C)(C)c1cnn(-c2ccc(NC(=O)C3(c4ccc(C(F)(F)F)cc4F)CC3)cc2-c2nnn[nH]2)c1` [Example 410, 1-[2-fluoro-4-(trifluoromethyl)phenyl]-N-[4-(4-tert-butyl-1H-pyrazol-1-yl)-3-(1H-tetrazol-5-yl)phenyl]cyclopro-panecarboxa-mide], the IC50 in assay [1] (setting [3]) came to 6.05 nM.
For `CC(C)(C)c1cnn(-c2ccc(NC(=O)C3(c4ccc(OC(F)(F)F)cc4F)CC3)cc2-c2nnn[nH]2)c1` [Example 411, 1-[2-fluoro-4-(trifluoromethoxy)phenyl]-N-[4-(4-tert-butyl-1H-pyrazol-1-yl)-3-(1H-tetrazol-5-yl)phenyl]cyclopro-pranecarboxa-mide], the IC50 in assay [1] (setting [3]) worked out at 6.84 nM.
Consider `O=C(Nc1ccc(-n2cnc(C(F)(F)F)n2)c(-c2nnn[nH]2)c1)C1(c2ccc(C(F)(F)F)cc2F)CC1` [Example 412, 1-[2-fluoro-4-(trifluoromethyl)phenyl]-N-{3-(1H-tetrazol-5-yl)-4-[3-(trifluoromethyl)-1H-1,2,4-triazol-1-yl]phenyl}cyclopro-panecarboxa-mide], for which the IC50 in assay [1] (setting [3]) was 504 nM.
On the same count and under the same terms, the value for `CC(C)c1cnn(-c2ccc(NC(=O)C3(c4ccc(OC(F)(F)F)cc4F)CC3)cc2-c2nnn[nH]2)c1` [Example 413, 1-[2-fluoro-4-(trifluoromethoxy)phenyl]-N-[4-(4-isopropyl-1H-pyrazol-1-yl)-3-(1H-tetrazol-5-yl)phenyl]cyclopro-panecarboxa-mide] was 5.84 nM.
